Columns and labels:
DLBCL cells = assay: Ferroptosis, Bodipy-C11 staining and ferrostatin-1 rescue; format: cell-based, human
OCI-LY3 = assay: Cell viability assay (CellTiter-Glo, ATP quantification); format: cell-based, human; settings: OCI-LY3, 96H; read-out: IC50
Procedure: (§1) FIG. 3: Iron chelators and Ironomycin inhibit DLBCL cell growth DLBCL cells were incubated with different concentrations of iron chelators or vehicle for 96H. Inhibitory concentration 50% (IC50) was calculated with concentration-response curve after treatment with Deferoxamin (A), Deferasirox, (B) and Ironomycin (C). Cell viability was examined using quantification of ATP assay. Data are expressed as mean percentage+/−SEM of at least three independent experiments performed in sixplicate.
(§2) The 16 DLBCL cell lines (U2932, OCI-LY-3, NU-DHL-1, OCI-LY-19, DB, SUDHL4, OCILY1, SUDHL5, DOHH2, SUDHL10, HT, RI-1, SU-DHL-6, NUDUL-1, WSU-DLCL-2 and OCI-LY-7) were purchased from the DSMZ (Leibniz-Institut DSMZ—Deutsche Sammlung von Mikroorganismen und Zellkulturen GmbH, Germany). They were maintained in RPMI-1640 (Gibco, Invitrogen), supplemented with 10% fetal bovine serum (PAA laboratory GmbH) for U2932, SUDHL-4, HT, DOHH2, SUDHL-10, RI-1, WSU-DLCL-2 cell lines, 20% FBS OCI-LY3, DB, SUDHL-5, NUDHL-1, SU-DHL-6, NUDUL-1 cell lines. OCI-LY1 and OCI-LY7 were cultured in IMDM (Gibco, Invitrogen), supplemented with 20% fetal bovine serum and OCI-LY19 was cultured in MEM alpha modified (Gibco, Invitrogen), supplemented with 20% fetal bovine serum. Cultures were maintained at 37° C. in a humidified atmosphere with 5% CO2.
(§3) DLBCL-derived cell lines were cultured for 4 days in 96-well flat-bottom microtiter plates in RPMI 1640 medium, 10% or 20% FCS (control medium) in the presence of various compounds. The number of viable cells in culture was determined using the CellTiter-Glo Luminescent Cell Viability Assay from Promega, Madison, Wis., USA using a Centro LB 960 luminometer (Berthold Technologies, Bad Wildbad, Germany).
(§4) This test is based on quantitation of the intracellular ATP present, which signals the presence of metabolically active cells. Data are expressed as the mean percentage of six replicates, normalized to the untreated control.

DB = assay: as above; format: cell-based, human; settings: 96H, read-out: IC50
Procedure: as §1, §2, §3, §4

SUDHL-5 = assay: as above; format: cell-based, human; settings: SUDHL5, 96H; read-out: IC50
Procedure: as §1, §2, §3, §4

U2932 = assay: as above; format: cell-based, human; settings: U2932, 96H; read-out: IC50
Procedure: as §1, §2, §3, §4

[1] = system: DLBCL-derived cell lines (U2932, DB and OCI-LY3); assay: Concentration matrix test, synergy matrix (Bliss equation); format: cell-based, human; settings: DB cell line, 96 h, combined with Doxorubicin
Procedure: (§5) The DB DLBCL-derived cell lines were treated with increasing concentrations of Ironomycin combined with Doxorubicin for 96 h and cell viability was tested by ATP quantification to obtain the viability matrix. The synergy matrix was calculated as described in Material and Methods (A).
as §5, with “Three” for “The DB”, “Venetoclax” for “Doxorubicin”, “Methods. FIG. 8A: U2932 cell line; FIG. 8B: DB cell line; FIG. 8C: OCI-LY3 cell line.” for “Methods (A).”
Two DLBCL-derived cell lines were treated with increasing concentrations of Ironomycin combined with Ibrutinib for 96 h and cell viability was tested by ATP quantification to obtain the viability matrix. The synergy matrix was calculated as described in Material and Methods. […]
Two DLBCL-derived cell lines were treated with increasing concentrations of Ironomycin combined with Venetoclax for 96 h and cell viability was tested by ATP quantification to obtain the viability matrix. The synergy matrix was calculated as described in Material and Methods. […]
Three DLBCL-derived cell lines were treated with increasing concentrations of Ironomycin combined with Venetoclax for 96 h and cell viability was tested by ATP quantification to obtain the viability matrix. […]

OCI-LY7 = assay: Cell viability assay (CellTiter-Glo, ATP quantification); format: cell-based, human; settings: OCI-LY7 (GCB), 96H
From the text: as §2, §3, §4
(§6) We extending the analyses to a large panel of 16 DLBCL cell lines. The panel of 16 DLBCL cell lines were incubated with increasing concentrations of Ironomycin or vehicle for 96H. Table 7 hereunder presents the inhibitory concentration 50% (IC50) of Ironomycin for the 16 DLBCL cell-lines.

OCI-LY19 = assay: as above; format: cell-based, human; settings: OCI-LY19 (GCB), 96H
From the text: as §2, §3, §4, §6

16 DLBCL cell lines = assay: Cell viability assay, panel of 16 DLBCL cell lines; format: cell-based, human; settings: 96H, read-out: IC50 range over all DLBCL cell lines
From the text: as §2, with “Cultures were maintained at 37° C. in a humidified atmosphere with 5% CO2.” left out
as §3
This test is based on quantitation of the intracellular ATP present, which signals the presence of metabolically active cells. Data are expressed as the mean percentage of six replicates, normalized to the untreated control. […]

CD34+ cells = assay: Hematopoietic progenitor colony forming units (CFU) assay; settings: 14 days
Procedure: Hematopoietic progenitor colony-forming units assay were performed with CD34+ cells from apheresis of 5 donors. […] CFU-C, CFU-E and CFU-GM were counted after 14 days culture (C).
Mobilized peripheral blood of donor were collected using an apheresis machine. Cells were CD34+ enriched by immuno-magnetic cell separation and fluorescence activated cell sorting (FACS).
About 250 viable CD34+ cells/mL were cultured in Methocult GF H84434 Medium (Stem Cell, #84434). Using a 3 mL syringe attached to a 16 gauge blunt end needle, 1 mL of the mixture was dispensed into 2 35 mm dishes.
Dishes were incubated at 37° C., in 5% C02, with >95% humidity for 14 days.

[2] = system: OCI-LY3 and DB DLBCL cells; assay: ROS production, CM-H2DCFDA staining; format: cell-based, human
[3] = system: OCI-LY3 and DB cell lines
From the text: The inventors further investigated the effect of Iron supplementation on the cell death induced by these treatments. Iron chelators concentrations were chosen according the maximal plasmatic concentration achievable in the patient (Nisbet-Brown et al., 2003).
Chaetocin was used as positive control of ROS production inhibited by GSH (Isham et al., 2007).

C#CCN[C@@H]1C=C[C@]2(O[C@H]([C@@H](CC)C(=O)[C@@H](C)[C@@H](O)[C@H](C)[C@@H]3O[C@@H]([C@@H](CC)C(=O)O)CC[C@@H]3C)[C@@H](C)C[C@H]2C)O[C@@]12CC[C@@](C)([C@H]1CC[C@](O)(CC)[C@H](C)O1)O2 [Ironomycin]
prevention of induced cell death by ferrostatin-1 (DLBCL cells): partially prevented
rescue of toxicity by combination of Oph-Q-VD and Fer-1 (DLBCL cells): could not completely abrogate
induction of ferroptosis (lipid peroxidation) (DLBCL cells; Bodipy-C11 staining): induces ferroptosis
IC50 (OCI-LY3): 16.8 nM
IC50 (DB): 17.2 nM
IC50 (SUDHL-5): 28.9 nM
IC50 (U2932): 30.4 nM
potentiation of doxorubicin toxicity (synergy matrix) [1]: significantly potentialized the toxicity of doxorubicin
IC50 (OCI-LY7): 51.6 nM
IC50 (OCI-LY19): 46.9 nM
IC50 (16 DLBCL cell lines): 7.2 to 91.5 nM
toxicity on CFU-C, CFU-E and CFU-GM formation (CD34+ cells; 10 nM, N=5): no significant toxicity
hematopoietic toxicity compared to conventional chemotherapy (CD34+ cells; 50 and 100 nM): significant lower hematopoietic toxicity
inhibition of induced ROS production by ferrostatin and GSH [2]: partially inhibited by ferrostin but not by gluthation (GSH)
ROS production ([2]; CM-H2DCFDA staining): induces ROS production
caspase activation associated with apoptosis [3]: activation of caspase-3 and −7
induction of apoptosis ([3]; Annexin V and PARP cleavage): induces apoptosis
effect of iron supplementation on drug-induced apoptosis / cytotoxicity ([3]; Iron(III) chloride supplementation): did not affect
inhibition of induced apoptosis by Oph-Q-VD pan-caspase inhibitor ([3]; P<0.001): partially inhibited

Reference: patent US20230220480A1, “IRON-SCORE AND IN VITRO METHOD FOR IDENTIFYING HIGH RISK DLBCL SUBJECTS AND THERAPEUTIC USES AND METHODS” (CENTRE NATIONAL DE LA RECHERCHE SCIENTIFIQUE (CNRS), priority 2019, published 2023)
